From ChEMBL document CHEMBL3132769, “Fragment growing to retain or alter the selectivity of anchored kinase hinge-binding fragments” (Medchemcomm, 2014)

Legend:
[1] = target: T1, MAP kinase-activated protein kinase 5 (Homo sapiens) (UniProt Q8IW41); assay: Inhibition of human full length PRAK expressed in baculovirus assessed as substrate phosphorylation using fluorescence-labelled peptides as substrate at 420 uM after 90 mins by microfluidic peptide phosphorylation assay
T1 sequence (whole entry): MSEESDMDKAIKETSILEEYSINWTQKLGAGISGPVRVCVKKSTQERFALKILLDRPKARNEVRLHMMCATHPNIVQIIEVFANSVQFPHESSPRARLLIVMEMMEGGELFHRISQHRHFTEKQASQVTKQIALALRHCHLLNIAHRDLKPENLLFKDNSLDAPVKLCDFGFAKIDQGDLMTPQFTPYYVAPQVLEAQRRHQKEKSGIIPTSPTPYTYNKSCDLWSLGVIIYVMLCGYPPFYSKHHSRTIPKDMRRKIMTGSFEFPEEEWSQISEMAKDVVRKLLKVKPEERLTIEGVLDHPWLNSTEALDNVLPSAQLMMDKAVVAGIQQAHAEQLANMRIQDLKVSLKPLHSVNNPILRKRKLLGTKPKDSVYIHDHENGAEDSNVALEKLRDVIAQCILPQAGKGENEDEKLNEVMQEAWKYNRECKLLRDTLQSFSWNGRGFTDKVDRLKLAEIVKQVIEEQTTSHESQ

[2] = target: MAP/microtubule affinity-regulating kinase 3 (Homo sapiens) (UniProt P27448); assay: Inhibition of human full length c-TAK1 expressed in Escherichia coli cell assessed as substrate phosphorylation using fluorescence-labelled peptides as substrate at […] after 90 mins by microfluidic peptide phosphorylation assay
[3] = target: T2, Serine/threonine-protein kinase D3 (Homo sapiens) (UniProt O94806); assay: Inhibition of human full length PKD3 expressed in baculovirus assessed as substrate phosphorylation using fluorescence-labelled peptides as substrate at 70 uM after 90 mins by microfluidic peptide phosphorylation assay
T2 sequence (whole entry): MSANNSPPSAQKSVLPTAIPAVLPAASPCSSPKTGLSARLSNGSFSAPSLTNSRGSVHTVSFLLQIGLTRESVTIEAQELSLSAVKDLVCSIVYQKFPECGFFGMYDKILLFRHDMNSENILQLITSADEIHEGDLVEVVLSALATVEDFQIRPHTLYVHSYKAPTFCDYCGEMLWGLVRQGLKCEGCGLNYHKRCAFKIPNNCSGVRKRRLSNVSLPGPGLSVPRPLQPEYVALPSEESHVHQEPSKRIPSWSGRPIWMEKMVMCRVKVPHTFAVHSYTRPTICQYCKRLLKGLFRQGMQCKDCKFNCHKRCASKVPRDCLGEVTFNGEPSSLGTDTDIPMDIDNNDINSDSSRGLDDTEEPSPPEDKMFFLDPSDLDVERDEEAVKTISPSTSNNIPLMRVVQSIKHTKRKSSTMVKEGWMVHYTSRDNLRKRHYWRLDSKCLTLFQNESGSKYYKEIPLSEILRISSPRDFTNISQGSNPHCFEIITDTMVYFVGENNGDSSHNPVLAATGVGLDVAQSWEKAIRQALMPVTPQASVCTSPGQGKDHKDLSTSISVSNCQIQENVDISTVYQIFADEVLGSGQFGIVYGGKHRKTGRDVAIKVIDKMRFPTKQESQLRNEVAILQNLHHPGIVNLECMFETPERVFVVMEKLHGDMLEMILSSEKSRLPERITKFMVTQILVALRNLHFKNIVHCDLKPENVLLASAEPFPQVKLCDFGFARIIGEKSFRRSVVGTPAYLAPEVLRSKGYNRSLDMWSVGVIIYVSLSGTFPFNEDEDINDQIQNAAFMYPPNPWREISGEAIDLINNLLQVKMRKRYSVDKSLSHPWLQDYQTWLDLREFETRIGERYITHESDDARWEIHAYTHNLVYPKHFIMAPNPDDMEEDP

[4] = target: T3, Serine/threonine-protein kinase D2 (Homo sapiens) (UniProt Q9BZL6); assay: Inhibition of human full length PKD2 expressed in baculovirus assessed as substrate phosphorylation using fluorescence-labelled peptides as substrate at 1000 uM after 90 mins by microfluidic peptide phosphorylation assay
T3 sequence (whole entry): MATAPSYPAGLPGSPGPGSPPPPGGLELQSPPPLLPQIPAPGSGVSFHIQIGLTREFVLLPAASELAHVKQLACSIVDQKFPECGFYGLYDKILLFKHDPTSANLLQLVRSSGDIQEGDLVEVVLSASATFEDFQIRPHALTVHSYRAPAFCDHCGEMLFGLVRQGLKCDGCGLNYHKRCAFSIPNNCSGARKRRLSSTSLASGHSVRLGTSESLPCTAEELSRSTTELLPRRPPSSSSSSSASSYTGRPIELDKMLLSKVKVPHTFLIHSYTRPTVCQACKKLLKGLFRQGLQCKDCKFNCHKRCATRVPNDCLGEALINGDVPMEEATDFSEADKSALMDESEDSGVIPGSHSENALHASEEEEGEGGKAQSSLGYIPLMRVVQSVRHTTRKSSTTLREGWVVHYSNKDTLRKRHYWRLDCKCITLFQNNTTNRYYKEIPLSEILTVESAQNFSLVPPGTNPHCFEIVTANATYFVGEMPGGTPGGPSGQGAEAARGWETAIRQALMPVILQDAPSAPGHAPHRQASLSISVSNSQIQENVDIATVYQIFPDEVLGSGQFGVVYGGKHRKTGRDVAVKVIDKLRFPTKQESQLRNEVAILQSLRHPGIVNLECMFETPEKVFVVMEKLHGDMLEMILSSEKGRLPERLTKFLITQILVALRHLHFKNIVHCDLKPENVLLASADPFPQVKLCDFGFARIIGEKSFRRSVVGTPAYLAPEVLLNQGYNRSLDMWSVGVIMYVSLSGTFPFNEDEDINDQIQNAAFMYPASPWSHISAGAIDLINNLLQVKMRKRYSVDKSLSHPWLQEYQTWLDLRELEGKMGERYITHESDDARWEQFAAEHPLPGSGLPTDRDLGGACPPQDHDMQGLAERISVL

[5] = target: T4, Serine/threonine-protein kinase 3 (Homo sapiens) (UniProt Q13188); assay: Inhibition of human full length MST2 expressed in baculovirus assessed as substrate phosphorylation using fluorescence-labelled peptides as substrate at 1000 uM after 90 mins by microfluidic peptide phosphorylation assay
T4 sequence (whole entry): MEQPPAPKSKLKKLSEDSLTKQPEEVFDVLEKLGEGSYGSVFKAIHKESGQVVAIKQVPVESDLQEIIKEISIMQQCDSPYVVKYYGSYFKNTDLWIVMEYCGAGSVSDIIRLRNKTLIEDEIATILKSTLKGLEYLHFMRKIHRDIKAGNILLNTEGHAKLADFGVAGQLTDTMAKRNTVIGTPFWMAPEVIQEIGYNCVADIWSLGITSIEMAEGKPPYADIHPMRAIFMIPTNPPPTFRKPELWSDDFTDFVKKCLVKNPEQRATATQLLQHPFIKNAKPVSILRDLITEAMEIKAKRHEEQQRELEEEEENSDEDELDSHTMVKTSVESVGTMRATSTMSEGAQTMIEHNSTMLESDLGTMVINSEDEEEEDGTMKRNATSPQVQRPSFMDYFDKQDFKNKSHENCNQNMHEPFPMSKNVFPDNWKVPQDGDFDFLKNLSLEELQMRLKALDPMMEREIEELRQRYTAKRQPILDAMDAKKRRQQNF

MAP/microtubule affinity-regulating kinase 3 (Homo sapiens), sequence (P27448 whole entry, looked up): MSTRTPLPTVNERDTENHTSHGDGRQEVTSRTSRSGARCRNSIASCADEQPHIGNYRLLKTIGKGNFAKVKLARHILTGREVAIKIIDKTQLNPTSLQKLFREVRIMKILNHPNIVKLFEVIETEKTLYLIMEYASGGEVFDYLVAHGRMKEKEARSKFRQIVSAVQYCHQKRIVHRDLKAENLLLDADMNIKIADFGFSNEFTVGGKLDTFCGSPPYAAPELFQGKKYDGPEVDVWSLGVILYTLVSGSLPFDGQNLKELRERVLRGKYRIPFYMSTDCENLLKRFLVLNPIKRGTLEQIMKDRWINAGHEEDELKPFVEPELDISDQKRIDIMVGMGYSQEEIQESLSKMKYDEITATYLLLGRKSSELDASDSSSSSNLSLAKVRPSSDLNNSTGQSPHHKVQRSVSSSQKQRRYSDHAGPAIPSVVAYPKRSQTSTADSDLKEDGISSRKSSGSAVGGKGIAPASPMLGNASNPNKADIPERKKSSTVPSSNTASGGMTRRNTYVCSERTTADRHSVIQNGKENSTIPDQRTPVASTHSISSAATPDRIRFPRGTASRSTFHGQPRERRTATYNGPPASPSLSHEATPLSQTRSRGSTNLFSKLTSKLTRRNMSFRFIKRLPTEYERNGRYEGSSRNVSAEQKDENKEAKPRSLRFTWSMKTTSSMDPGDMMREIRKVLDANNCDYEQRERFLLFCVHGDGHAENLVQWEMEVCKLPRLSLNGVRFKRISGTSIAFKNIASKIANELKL

SMILES: c1nc(N2CCOCC2)c2nc[nH]c2n1
- inhibition [1]: 40%

SMILES: COC(=O)c1cnc(Nc2cnc(C#N)cn2)cc1NCC1CCNCC1
- inhibition [2]: 0.5%

SMILES: CNCc1ccc(-c2ncnc3[nH]cnc23)cc1
- inhibition [3]: 72.5%

SMILES: c1cnc2[nH]ccc2c1
- inhibition [4]: 49.5%
- inhibition [5]: 63%
